Measured values from patent publication US20230013669A1, “Antibacterial Treatment Using a Cannabinoid and an Active Agent” (priority 2019, published 2023).
Several values for one entry are separate records, joined by “and”; a condition that tells them apart may be missing. Equal values may be shown once.

Test system: Acinetobacter baumannii ATCC 19606 (GN_034)
Assay: Synergy of cannabidiol with cell-wall disrupting agent (CBD MIC in combination, FICI)
Type: cell-based
Conditions: for FICI range: CBD with Spero SPR206
Protocol: The compounds were stored short term at 4° C.
Analysis was performed using Microsoft Excel.

[1] = Example 6, GN_034, listed as CBD

## C=C(C)C1CCC(C)=CC1c1c(O)cc(CCCCC)cc1O (stereo not shown) [Cannabidiol, 2-[3-methyl-6-(1-methylethenyl)-2-cyclohexen-1-yl]-5-pentyl-1,3-benzenediol]
1st of 3 experiments
  FICI range: 0.25-8
3rd of 3 experiments
  FICI range: 1.5-16
CBD with Spero SPR206 at 0.25 μg/mL, 1st of 3 experiments, CBD MIC taken as 256 μg/mL
  FICI: 0.5
CBD with Spero SPR206 at 0.25 μg/mL, 3rd of 3 experiments, CBD MIC taken as 256 μg/mL
  FICI: 2
CBD with Spero SPR206 at 0.5 μg/mL, 1st of 3 experiments, CBD MIC taken as 256 μg/mL
  FICI: 1
CBD with Spero SPR206 at 0.5 μg/mL, 3rd of 3 experiments, CBD MIC taken as 256 μg/mL
  FICI: 3
CBD with Spero SPR206 at 1 μg/mL, 1st of 3 experiments, CBD MIC taken as 256 μg/mL
  FICI: 2
CBD with Spero SPR206 at 1 μg/mL, 3rd of 3 experiments, CBD MIC taken as 256 μg/mL
  FICI: 4.004 and 4.002
CBD with Spero SPR206 at 2 μg/mL, 1st of 3 experiments, CBD MIC taken as 256 μg/mL
  FICI: 4
CBD with Spero SPR206 at 2 μg/mL, 3rd of 3 experiments, CBD MIC taken as 256 μg/mL
  FICI: 8
CBD with Spero SPR206 at 4 μg/mL, 1st of 3 experiments, CBD MIC taken as 256 μg/mL
  FICI: 8
CBD with Spero SPR206 at 4 μg/mL, 3rd of 3 experiments, CBD MIC taken as 256 μg/mL
  FICI: 16
CBD with Spero SPR206 at […], 1st of 3 experiments, CBD MIC taken as 256 μg/mL
  FICI: 0.25
CBD with Spero SPR206 at […], 3rd of 3 experiments, CBD MIC taken as 256 μg/mL
  FICI: 1.5
CBD with Ticarcillin at 2 μg/mL, Acinetobacter baumannii ATCC 19606
  FICI: 0.625
CBD with Ticarcillin at 4 μg/mL, Acinetobacter baumannii ATCC 19606
  FICI: 1.0625
CBD with Ticarcillin at 8 μg/mL, Acinetobacter baumannii ATCC 19606
  FICI: 2
CBD with Ticarcillin at 16 μg/mL, Acinetobacter baumannii ATCC 19606
  FICI: 4
CBD with Ticarcillin at 32 μg/mL, Acinetobacter baumannii ATCC 19606
  FICI: 8
CBD with Ticarcillin at 64 μg/mL, Acinetobacter baumannii ATCC 19606
  FICI: 16
CBD with Ticarcillin, Acinetobacter baumannii ATCC 19606
  FICI range (MIC table): 0.63-16
Cefepime at 4 μg/mL
  CBD MIC with Cefepime: 32 µg/mL
Cefepime at 8 μg/mL
  CBD MIC with Cefepime: 16 µg/mL
Cefotetan at 4 μg/mL
  CBD MIC with Cefotetan: >32 µg/mL
Cefotetan at 4 μg/mL, Acinetobacter baumannii ATCC 19606
  CBD MIC with Cefotetan: >256 µg/mL
Cefotetan at 8 μg/mL
  CBD MIC with Cefotetan: >32 µg/mL
Cefotetan at 8 μg/mL, Acinetobacter baumannii ATCC 19606
  CBD MIC with Cefotetan: >256 µg/mL
Cefotetan at 16 μg/mL
  CBD MIC with Cefotetan: >32 µg/mL
Cefotetan at 16 μg/mL, Acinetobacter baumannii ATCC 19606
  CBD MIC with Cefotetan: >256 µg/mL
Cefotetan at 32 μg/mL
  CBD MIC with Cefotetan: >32 µg/mL
Cefotetan at 32 μg/mL, Acinetobacter baumannii ATCC 19606
  CBD MIC with Cefotetan: >256 µg/mL
Cefotetan at 64 μg/mL
  CBD MIC with Cefotetan: >32 µg/mL
Cefotetan at 64 μg/mL, Acinetobacter baumannii ATCC 19606
  CBD MIC with Cefotetan: >256 µg/mL
Cefotetan at 128 μg/mL
  CBD MIC with Cefotetan: >32 µg/mL
Cefotetan at 128 μg/mL, Acinetobacter baumannii ATCC 19606
  CBD MIC with Cefotetan: >256 µg/mL
Ceftazidime at 0.015 μg/mL as headed in Table 64, Acinetobacter baumannii ATCC 19606
  CBD MIC with Ceftazidime: >256 µg/mL
Ceftazidime at 0.031 μg/mL as headed in Table 64, Acinetobacter baumannii ATCC 19606
  CBD MIC with Ceftazidime: >256 µg/mL
Ceftazidime at 0.062 μg/mL as headed in Table 64, Acinetobacter baumannii ATCC 19606
  CBD MIC with Ceftazidime: >256 µg/mL
Ceftazidime at 0.25 μg/mL as headed in Table 64, Acinetobacter baumannii ATCC 19606
  CBD MIC with Ceftazidime: 16 µg/mL
Ceftazidime at 0.5 μg/mL (Table 66), Acinetobacter baumannii ATCC 19606
  CBD MIC with Ceftazidime: >32 µg/mL
Ceftazidime at 0.5 μg/mL as headed in Table 64, Acinetobacter baumannii ATCC 19606
  CBD MIC with Ceftazidime: 0.001 µg/mL
Ceftazidime at 1 μg/mL (Table 66), Acinetobacter baumannii ATCC 19606
  CBD MIC with Ceftazidime: >32 µg/mL
Ceftazidime at 2 μg/mL (Table 66), Acinetobacter baumannii ATCC 19606
  CBD MIC with Ceftazidime: >32 µg/mL
Ceftazidime at 4 μg/mL (Table 66), Acinetobacter baumannii ATCC 19606
  CBD MIC with Ceftazidime: 32 µg/mL
Ceftazidime at 8 μg/mL (Table 66), Acinetobacter baumannii ATCC 19606
  CBD MIC with Ceftazidime: 16 µg/mL
Ceftazidime at 16 μg/mL (Table 66), Acinetobacter baumannii ATCC 19606
  CBD MIC with Ceftazidime: 0.001 µg/mL
Ceftazidime at […] as headed in Table 64, Acinetobacter baumannii ATCC 19606
  CBD MIC with Ceftazidime: 32 µg/mL
Colistin at 0.031 μg/mL, Acinetobacter baumannii ATCC 19606
  CBD MIC with Colistin: 4 µg/mL
Colistin at 0.062 μg/mL, Acinetobacter baumannii ATCC 19606
  CBD MIC with Colistin: 2 µg/mL
Colistin at 0.25 μg/mL, Acinetobacter baumannii ATCC 19606
  CBD MIC with Colistin: 1 µg/mL
Colistin at 1 μg/mL, Acinetobacter baumannii ATCC 19606
  CBD MIC with Colistin: 0.001 µg/mL
Colistin at […], Acinetobacter baumannii ATCC 19606
  CBD MIC with Colistin: 1 µg/mL
Example 1
  activity of cannabidiol in combination with Polymyxin B: effective
Example 1, GN_034, cannabidiol + MCC_006636 (Polymyxin B)
  Average FICI score: 0.135
Example 1, GN_034, cannabidiol + MCC_006636 (Polymyxin B), synergy when FICI≤0.5
  Synergy: YES
Example 2
  activity of cannabidiol combined with cefuroxime: effective
Example 2, GN_034
  CBD MIC with Cefuroxime at concentration 4 μg/mL: >256 µg/mL
  CBD MIC with Cefuroxime at concentration 8 μg/mL: >256 µg/mL
  CBD MIC with Cefuroxime at concentration 16 μg/mL: 32 µg/mL
  CBD MIC with Cefuroxime at concentration 64 μg/mL: 0.0625 µg/mL
  CBD MIC with Cefuroxime at concentration 128 μg/mL: 0.0009766 µg/mL
Example 2, GN_034, listed as CBD
  CBD MIC with Cefuroxime at concentration 32 μg/mL: 16 µg/mL and 32 µg/mL
Example 3
  activity of cannabidiol combined with colistin: effective
Example 3, GN_034
  CBD MIC with Colistin at concentration 0.03125 μg/mL: 4 µg/mL
  CBD MIC with Colistin at concentration 0.0625 μg/mL: 2 µg/mL
  CBD MIC with Colistin at concentration 0.25 μg/mL: 1 µg/mL
  CBD MIC with Colistin at concentration 1 μg/mL: 0.0009766 µg/mL
  CBD MIC with Colistin at concentration […]: 1 µg/mL
Example 4
  activity of cannabidiol combined with octapeptin MCC_006442: effective
Example 5
  activity of cannabidiol combined with aztreonam: effective
  activity of cannabidiol combined with cefepime: effective
Example 5, GN_034
  CBD MIC with Aztreonam at concentration 0.5 μg/mL: >256 µg/mL
  CBD MIC with Aztreonam at concentration 1 μg/mL: >256 µg/mL
  CBD MIC with Aztreonam at concentration 2 μg/mL: >256 µg/mL
  CBD MIC with Aztreonam at concentration 4 μg/mL: 32 µg/mL
  CBD MIC with Aztreonam at concentration 8 μg/mL: 32 µg/mL
  CBD MIC with Aztreonam at concentration 16 μg/mL: 0.0009766 µg/mL
  CBD MIC with Cefepime at concentration 0.25 μg/mL: >256 µg/mL
  CBD MIC with Cefepime at concentration 0.5 μg/mL: >256 µg/mL
  CBD MIC with Cefepime at concentration 1 μg/mL: >256 µg/mL
  CBD MIC with Cefepime at concentration 2 μg/mL: >256 µg/mL
  CBD MIC with Cefepime at concentration 4 μg/mL: 32 µg/mL
  CBD MIC with Cefepime at concentration 8 μg/mL: 16 µg/mL
Example 6
  activity of cannabidiol combined with Polymyxin B: effective
Example 6, GN_034
  CBD MIC with Polymyxin B at concentration 0.015625 μg/mL: >256 µg/mL
  CBD MIC with Polymyxin B at concentration 0.03125 μg/mL: >256 µg/mL
  CBD MIC with Polymyxin B at concentration 0.0625 μg/mL: >256 µg/mL
  CBD MIC with Polymyxin B at concentration 0.5 μg/mL: 0.0009766 µg/mL
[1]
  CBD MIC with Polymyxin B at concentration 0.25 μg/mL: 8 µg/mL and 4 µg/mL
  CBD MIC with Polymyxin B at concentration […]: 16 µg/mL and 8 µg/mL
Example 7
  activity of cannabidiol in combination with octapeptin MCC_006442: effective
Example 12
  activity of cannabidiol combined with cefuroxime: effective
Example 14
  activity of cannabidiol combined with colistin: effective
Example 15
  activity of cannabidiol combined with octapeptin MCC_006442: effective
Example 18
  activity of cannabidiol combined with aztreonam: effective
Example 19
  activity of cannabidiol combined with cefepime: effective
Example 21
  activity of cannabidiol combined with octapeptin C4: effective
Example 22
  activity of cannabidiol in combination with Spero Potentiator SPR741: effective
  activity of cannabidiol in combination with Spero SPR206: effective
Example 23
  activity of cannabidiol in combination with octapeptin FADDI-287: effective
Example 24
  activity of cannabidiol in combination with MCC_8980: effective
Octapeptin C4 at 2 μg/mL, listed as CBD
  CBD MIC with Octapeptin C4: 16 µg/mL
Spero SPR206 at 1 μg/mL, 3rd of 3 experiments, listed as CBD
  CBD MIC with Spero SPR206: 0.5 µg/mL
Ticarcillin at 16 μg/mL, Acinetobacter baumannii ATCC 19606
  CBD MIC with Ticarcillin: 0.001 µg/mL
Ticarcillin at 32 μg/mL, Acinetobacter baumannii ATCC 19606
  CBD MIC with Ticarcillin: 0.001 µg/mL
Ticarcillin at 64 μg/mL, Acinetobacter baumannii ATCC 19606
  CBD MIC with Ticarcillin: 0.001 µg/mL
